Source: US20230112418A1, “COMPOUND AND RADIOACTIVE LABELING COMPOUND” (NIHON MEDI-PHYSICS CO., LTD., priority 2020, published 2023)
Read-outs that look alike come from different tables or passages of the source. Blank lines part the entries; values can stand above or below the compound they belong to.

Assays:
[1] = tested on: LNCaP tumor transplanted mice; experiment: Suppression of tumor growth by 90Y-labeled compound; assay type: in vivo; conditions: 3.7 MBq i.v., FIG. 8
Protocol: A saline solution (100 μL) of [^90Y]Y-PSMA-DA1 (3.7 MBq) or [^90Y]Y-PSMA-DB (3.7 MBq) obtained by the above-described method was injected into each of the LNCaP tumor transplanted mice via the tail vein thereof (n=7). As a control group, 100 μL of saline was injected into each of the LNCaP tumor transplanted mice via the tail vein thereof (n=7).
After the injection of the ^90Y-labeled compound, a tumor volume and a body weight were measured three times per week. The tumor volume was calculated based on a calculation formula “(tumor volume)=[(long side)×(short side)^2/2]”.

[2] = Distribution coefficient (1-octanol/PBS); assay type: physicochemical; conditions: log10, 1-octanol/PBS pH 7.4, n=5
Protocol: The radioactive labeled compound (740 kBq) of any one of Examples and Comparative Examples was added to a mixed liquid of PBS (3 mL, pH 7.4 (20° C.)) and 1-octanol (3 mL), and the mixture was vortexed for two minutes and then centrifuged at 4000×g for five minutes. Thereafter, 1 mL of the 1-octanol layer and 500 μL of the PBS layer were collected, and the amount of radioactivity of each of the layers was measured with a gamma counter (n=5).
As a calculation formula of a distribution coefficient, “log10 [(amount of radioactivity of 1-octanol layer)/(amount of radioactivity of PBS layer×2)]” was used. Results are illustrated in Table 1 below as mean±standard deviation (mean±SD).
[^111In]In-PtDA (111 kBq) was added to a mixed liquid of PBS (pH 7.4, 3 mL) and 1-octanol (3 mL). The mixture was dispersed by vortexing for two minutes, and then centrifuged at 4000×g for five minutes. 1 mL of the 1-octanol layer and 1 mL of the PBS layer were collected, and the radioactivity of each of the layers was measured with a gamma counter (n=3).
As a calculation formula, “(distribution coefficient)=[…]) [(radioactivity of 1-octanol layer [kBq])/(radioactivity of PBS layer [kBq])]” was used.

CA-IX = biological target: T1, CA-IX (Homo sapiens, UniProt Q16790); experiment: Cell binding inhibition assay (acetazolamide as inhibitor, HT-29 cells); conditions: read-out: IC50 (nM, mean ± SD)
T1 construct: HT-29 cells (CA-IX highly expressing cells, purchased from Sumitomo Dainippon Pharma Co., Ltd.); host or cells: HT-29 cells
Protocol: In this evaluation, binding properties of [^111In]IS-DO2A-ALB1 to DO2A-ALB4 and [^111In]DO3A-IS1 with respect to CA-IX were evaluated.
Specifically, HT-29 cells (CA-IX highly expressing cells, purchased from Sumitomo Dainippon Pharma Co., Ltd.) were seeded together with a medium at 4.0×10^5 cells/well in a 12 well plate, and cultured at 37° C. for 24 hours in an atmosphere of 5% carbon dioxide.
Subsequently, the medium was removed, and a medium containing any one of the radioactive labeled compounds of Examples 1 to 4 and Comparative Example 1 (37 kBq/mL) was added to each well in an amount of 1 mL such that the acetazolamide concentration was 50000 to 0.00512 nM as an inhibitor, and the sample was cultured at 37° C. for two hours in an atmosphere of 5% carbon dioxide. In addition, a sample containing the radioactive labeled compound and not containing acetazolamide was also cultured under similar conditions. The experiment was performed with each concentration group at n=6.
Subsequently, the medium was removed, the residue was washed with PBS (1 mL), and cells were lysed with a 1 N sodium hydroxide aqueous solution (200 μL×2) to obtain a cell lysate. Then, the amount of radioactivity in the cell lysate and that in the medium containing the radioactive labeled compound were each measured with a gamma counter (type name: Wallac 2470 Wizard manufactured by PerkinElmer, Massachusetts, U.S.A.). Separately from this, the total protein mass (mg protein) in the cell lysate was quantified by a BCA method. […] Results are illustrated in Table 2 below as mean±standard deviation (mean±SD).
That is, the […] the calculated value of IC50, the higher affinity between the radioactive labeled compound and CA-IX.

HT-29 tumor-bearing mice = experiment: In vivo radioactivity distribution assay in HT-29 tumor-bearing mice
Description: Under 2% isoflurane anesthesia, a suspension of HT-29 cells (5×10^6 cells/mouse) expressing CA-IX was subcutaneously injected into the left shoulder of each of 5-week-old male BALB/c nude mice (purchased from SHIMIZU Laboratory Supplies CO., LTD.). The composition of the suspension was a mixture of HT-29 cells/DMEM medium (manufactured by Thermo Fisher Scientific Inc.) and a matrix product (Geltrex (registered trademark) (manufactured by Thermo Fisher) at a volume ratio of 1:1.
Thereafter, the subcutaneously injected mice were raised for 14 days in a raising room that switches day and night every 12 hours with normal food and tap water to obtain HT-29 tumor-bearing mice.
Then, a saline solution (259 kBq, 100 μL, containing 3 mg of ascorbic acid) of each of the radioactive labeled compounds of Examples 1 to 3 or a saline solution (259 kBq, 100 μL, containing 1 mg of ascorbic acid) of the radioactive labeled compound of Comparative Example 1 was injected into each of the mice via the tail vein thereof. The mice (n=5 in each group) were euthanized 1, 4, 8, 24, 48, 96, or 192 hours after the injection, blood, organs, and tumor sites were collected, and the masses thereof were measured. The amount of radioactivity was measured with a gamma counter.
(§1) The degree of accumulation of the radioactive labeled compound is indicated as a value (% injected dose/g) obtained by dividing the percentage (% ID) of the amount of radioactivity with respect to the amount of injected radioactivity (injected dose) by the mass of blood or the mass of an organ (g). […] Results are illustrated in FIG. 1.

[3] = tested on: MDA-MB-231 tumor-bearing mice; experiment: In vivo radioactivity distribution assay in MDA-MB-231 tumor-bearing mice; conditions: 24 hours after injection
Protocol: In a similar manner to Evaluation 3, a suspension of MDA-MB-231 cells (1×10^7 cells/mouse) having low expression of CA-IX was subcutaneously injected into the left shoulder of each of 5-week-old male BALB/c nude mice to obtain MDA-MB-231 tumor-bearing mice.
Then, a saline solution (40 kBq, 100 μL, containing 3 mg of ascorbic acid) of the radioactive labeled compound of Example 1 was injected into each of the mice via the tail vein thereof. Mice (n=5 in each group) were euthanized 24 hours after the injection, blood, organs, and tumor sites were collected, and the masses thereof were measured. The amount of radioactivity was measured with a gamma counter.
as §1, with “ID/g)” for “injected dose/g)”, “Table 3 as mean±standard deviation (n=5).” for “FIG. 1.”

[4] = tested on: LNCaP tumor transplanted mice; experiment: Suppression of tumor growth by 225Ac-labeled compound; assay type: in vivo; conditions: 20 kBq i.v., FIG. 9
Protocol: [^225Ac]Ac-PSMA-DA1 (20 kBq) or [^225Ac]Ac-PSMA-DB (20 kBq) obtained by the above-described method was dissolved in a 5% ethanol-containing acetate buffer (158 mM, pH 6.5, 100 μL), and the solution was injected into each of the LNCaP tumor transplanted mice via the tail vein thereof (n=6 or 5). As a control group, 100 μL of 5% ethanol-containing acetate buffer (158 mM, pH 6.5) was injected into each of the LNCaP tumor transplanted mice via the tail vein thereof (n=4).
After the injection of the ^225Ac-labeled compound, a tumor volume and a body weight were measured three times per week. The tumor volumes on the start day of injection of the ^225Ac-labeled compound were 75.3±26.0, 80.6±20.8, and 91.1±15.9 mm^3 in the [^225Ac]Ac-PSMA-DA1 injection group, the [^225Ac]Ac-PSMA-DB injection group, and the 5% ethanol-containing acetate buffer injection group, respectively.

[5] = IC50 of inhibitor acetazolamide against binding of the radioactive labeled compound to HT-29 cells, 2 h, larger value = higher affinity of labeled compound for CA-IX

SMILES: O=C([O-])CN1CCN(C(CCC(=O)NCCCC[C@H](NC(=O)N[C@@H](CCC(=O)O)C(=O)O)C(=O)O)C(=O)[O-])CCN(CC(=O)[O-])CCN(C(CCC(=O)Nc2ccccc2)C(=O)[O-])CC1.[90Y+3] (stereo partly shown) [[^90Y]Y-PSMA-DB]
Time after injection at which a significant difference in tumor volume vs saline group was observed [1]: ≥ 33 days

SMILES: NS(=O)(=O)c1nn2cc(-c3ccc(NC(=O)CN4CCN(CC(=O)O)CCN(CC(=O)O)CCN(CC(=O)O)CC4)cc3)nc2s1 [[^111In]DO3A-IS1, metal not drawn]
Distribution coefficient (mean ± SD) [2]: −3.72 ± 0.05
IC50 (CA-IX): 127 ± 19.6 nM

SMILES: NS(=O)(=O)c1nn2cc(-c3ccc(NC(=O)CN4CCN(CC(=O)[O-])CCN(CC(=O)[O-])CCN(CC(=O)[O-])CC4)cc3)nc2s1.[111In+3] [[^111In]DO3A-IS1]
Amount accumulated in the kidney (in words) (HT-29 tumor-bearing mice; FIG. 1): very large as compared with the results of Examples
Amount accumulated in the tumor expressing CA-IX (in words) (HT-29 tumor-bearing mice; FIG. 1, HT-29 tumor): poor

SMILES: O=C([O-])CN1CCN(C(CCC(=O)NCCCC[C@H](NC(=O)N[C@@H](CCC(=O)O)C(=O)O)C(=O)O)C(=O)[O-])CCN(CC(=O)[O-])CCN(C(CCC(=O)N[C@@H](CCCCNC(=O)CCCc2ccc(I)cc2)C(=O)O)C(=O)[O-])CC1.[225Ac+3] (stereo partly shown) [[^225Ac]Ac-PSMA-DA1]
Course of tumor growth (in words) [4]: the tumor hardly grew, and continuous growth suppression was observed up to six weeks after the injection
Decrease in body weight (in words) [4]: transient
Tumor growth compared with control group (in words) [4]: tumor growth was significantly suppressed

SMILES: O=C([O-])CN1CCN(C(CCC(=O)NCCCC[C@H](NC(=O)N[C@@H](CCC(=O)O)C(=O)O)C(=O)O)C(=O)[O-])CCN(CC(=O)[O-])CCN(C(CCC(=O)Nc2ccccc2)C(=O)[O-])CC1.[225Ac+3] (stereo partly shown) [[^225Ac]Ac-PSMA-DB]
Decrease in body weight (in words) [4]: temporarily accelerated, but there was no sign of recovery thereafter
Tumor growth compared with control group (in words) [4]: tumor growth was significantly suppressed

Continued, values first:

Distribution coefficient (mean ± SD) [2]: −1.70 ± 0.01
IC50 (CA-IX; [5]): 571.4 ± 2.6 nM
Accumulation in the HT-29 tumor (HT-29 tumor-bearing mice; value of Evaluation 3 quoted for comparison with Table 3): 10.73 % ID/g
Radioactivity accumulated amount: Blood [3]: 5.50 ± 1.17 % ID/g
Radioactivity accumulated amount: Brain [3]: 0.34 ± 0.03 % ID/g
Radioactivity accumulated amount: Heart [3]: 3.12 ± 0.25 % ID/g
Radioactivity accumulated amount: Intestinal [3]: 4.65 ± 0.48 % ID/g
Radioactivity accumulated amount: Kidney [3]: 11.42 ± 0.65 % ID/g
Radioactivity accumulated amount: Liver [3]: 2.64 ± 0.47 % ID/g
Radioactivity accumulated amount: Lung [3]: 7.28 ± 0.85 % ID/g
Radioactivity accumulated amount: Muscle [3]: 1.21 ± 0.22 % ID/g
Radioactivity accumulated amount: Pancreas [3]: 2.27 ± 0.30 % ID/g
Radioactivity accumulated amount: Spleen [3]: 2.04 ± 0.45 % ID/g
Radioactivity accumulated amount: Stomach [3]: 4.44 ± 0.48 % ID
Radioactivity accumulated amount: Tumor (MDA-MB-231) [3]: 5.05 ± 0.59 % ID/g
Tumor/blood radioactivity ratio [3]: 0.94 ± 0.17
Tumor/kidney radioactivity ratio [3]: 0.44 ± 0.05
Tumor/muscle radioactivity ratio [3]: 4.22 ± 0.47
SMILES: NS(=O)(=O)c1nn2cc(-c3ccc(NC(=O)CN4CCN(CC(=O)O)CCN(CC(=O)N[C@@H](CCCCNC(=O)CCCc5ccc(I)cc5)C(=O)O)CCN(CC(=O)O)CC4)cc3)nc2s1.[111In+3] [[^111In]IS-DO2A-ALB1]

Distribution coefficient (mean ± SD) [2]: −2.16 ± 0.04
IC50 (CA-IX; [5]): 165 ± 60.6 nM
SMILES: Cc1ccc(CCCC(=O)NCCCC[C@H](NC(=O)CN2CCN(CC(=O)O)CCN(CC(=O)Nc3ccc(-c4cn5nc(S(N)(=O)=O)sc5n4)cc3)CCN(CC(=O)O)CC2)C(=O)O)cc1.[111In+3] [[^111In]IS-DO2A-ALB2, [^111In] indium(III) (S)-2,2′-(4-(2-((1-carboxy-5-(4-(4-tolyl)butanamide)pentyl)amino)-2-oxoethyl)-10-(2-oxo-2-((4-(2-sulfamoylimidazo[2,1-b][1,3,4]thiadiazol-6-yl)phenyl)amino)ethyl)-1,4,7,10-tetraazacyclododecane-1,7-diyl) diacetic acid]

Distribution coefficient (mean ± SD) [2]: −1.90 ± 0.01
IC50 (CA-IX; [5]): 288 ± 45.7 nM
SMILES: NS(=O)(=O)c1nn2cc(-c3ccc(NC(=O)CN4CCN(CC(=O)O)CCN(CC(=O)N[C@@H](CCCCNC(=O)CCCc5ccc(Br)cc5)C(=O)O)CCN(CC(=O)O)CC4)cc3)nc2s1.[111In+3] [[^111In]IS-DO2A-ALB3]

Distribution coefficient (mean ± SD) [2]: −2.36 ± 0.01
IC50 (CA-IX; [5]): 105 ± 8 nM
SMILES: NS(=O)(=O)c1nn2cc(-c3ccc(NC(=O)CN4CCN(CC(=O)O)CCN(CC(=O)N[C@@H](CCCCNC(=O)CCCc5ccccc5)C(=O)O)CCN(CC(=O)O)CC4)cc3)nc2s1.[111In+3] [[^111In]IS-DO2A-ALB4, [^111In] indium(III) (S)-2,2′-(−(2-((1-carboxy-5-(4-phenylbutanamide)pentyl)amino)-2-oxoethyl)-10-(2-oxo-2-((4-(2-sulfamoylimidazo[2,1-b][1,3,4]thiadiazol-6-yl)phenyl)amino)ethyl)-1,4,7,10-tetraazacyclododecane-1,7-diyl) diacetic acid]
